Measurements: publication PMC4042160, “In silico, in vitro and cellular analysis with a kinome-wide inhibitor panel correlates cellular LRRK2 dephosphorylation to inhibitor activity on LRRK2” (Frontiers in Molecular Neuroscience, 2014)
Like-named read-outs stand apart in the source and are kept apart here.

Assays:
[1] = biological target: T1, full length LRRK2 protein (Homo sapiens, UniProt Q5S007); assay: In vitro LRRKtide kinase assay with full length recombinant LRRK2, dose-response (IC50/pIC50); assay type: biochemical; conditions: for IC50: read-out: IC50 in vitro (lrrktide)
T1 construct: compounds were tested in triplicate with full length LRRK2 protein; made in house

LRRK2 phospho-Ser935 = biological target: T2, LRRK2 phospho-Ser935 (Homo sapiens, UniProt Q5S007); assay: Cellular LRRK2 phosphoserine 935 dephosphorylation spotblot assay in SH-SY5Y cells stably expressing 3xFlag-LRRK2; assay type: cell-based; conditions: for Phosphorylation level relative to solvent (%) (cellular pS935 assay): @ 5 μM for 2 h, SH-SY5Y stably expressing LRRK2, pS935/total LRRK2; for IC50: read-out: IC50 cellular (pS935)
T2 construct: expressed in transfected cells

[2] = biological target: T3, GST-tagged truncated LRRK2 containing residues 970 to 2527 (Homo sapiens, UniProt Q5S007); assay: In vitro LRRKtide peptide-substrate kinase assay, single dose testing (10 μM); assay type: biochemical; conditions: LRRKtide assay @ 10 μM inhibitor; GST-LRRK2 970-2527; 10 μM ATP; mean, N = 3; solvent control = 100%
T3 construct: GST-tagged truncated LRRK2 containing residues 970 to 2527 (Life Technologies); purchased Life Technologies

[3] = LRRKtide phosphorylation, dose-response
[4] = pS935 level as % of control, 5 μM for 2 h, SH-SY5Y cells with stable expression of LRRK2
[5] = pS935 dephosphorylation, SH-SY5Y cells with stable expression of LRRK2

T3 sequence (Q5S007 970-2527): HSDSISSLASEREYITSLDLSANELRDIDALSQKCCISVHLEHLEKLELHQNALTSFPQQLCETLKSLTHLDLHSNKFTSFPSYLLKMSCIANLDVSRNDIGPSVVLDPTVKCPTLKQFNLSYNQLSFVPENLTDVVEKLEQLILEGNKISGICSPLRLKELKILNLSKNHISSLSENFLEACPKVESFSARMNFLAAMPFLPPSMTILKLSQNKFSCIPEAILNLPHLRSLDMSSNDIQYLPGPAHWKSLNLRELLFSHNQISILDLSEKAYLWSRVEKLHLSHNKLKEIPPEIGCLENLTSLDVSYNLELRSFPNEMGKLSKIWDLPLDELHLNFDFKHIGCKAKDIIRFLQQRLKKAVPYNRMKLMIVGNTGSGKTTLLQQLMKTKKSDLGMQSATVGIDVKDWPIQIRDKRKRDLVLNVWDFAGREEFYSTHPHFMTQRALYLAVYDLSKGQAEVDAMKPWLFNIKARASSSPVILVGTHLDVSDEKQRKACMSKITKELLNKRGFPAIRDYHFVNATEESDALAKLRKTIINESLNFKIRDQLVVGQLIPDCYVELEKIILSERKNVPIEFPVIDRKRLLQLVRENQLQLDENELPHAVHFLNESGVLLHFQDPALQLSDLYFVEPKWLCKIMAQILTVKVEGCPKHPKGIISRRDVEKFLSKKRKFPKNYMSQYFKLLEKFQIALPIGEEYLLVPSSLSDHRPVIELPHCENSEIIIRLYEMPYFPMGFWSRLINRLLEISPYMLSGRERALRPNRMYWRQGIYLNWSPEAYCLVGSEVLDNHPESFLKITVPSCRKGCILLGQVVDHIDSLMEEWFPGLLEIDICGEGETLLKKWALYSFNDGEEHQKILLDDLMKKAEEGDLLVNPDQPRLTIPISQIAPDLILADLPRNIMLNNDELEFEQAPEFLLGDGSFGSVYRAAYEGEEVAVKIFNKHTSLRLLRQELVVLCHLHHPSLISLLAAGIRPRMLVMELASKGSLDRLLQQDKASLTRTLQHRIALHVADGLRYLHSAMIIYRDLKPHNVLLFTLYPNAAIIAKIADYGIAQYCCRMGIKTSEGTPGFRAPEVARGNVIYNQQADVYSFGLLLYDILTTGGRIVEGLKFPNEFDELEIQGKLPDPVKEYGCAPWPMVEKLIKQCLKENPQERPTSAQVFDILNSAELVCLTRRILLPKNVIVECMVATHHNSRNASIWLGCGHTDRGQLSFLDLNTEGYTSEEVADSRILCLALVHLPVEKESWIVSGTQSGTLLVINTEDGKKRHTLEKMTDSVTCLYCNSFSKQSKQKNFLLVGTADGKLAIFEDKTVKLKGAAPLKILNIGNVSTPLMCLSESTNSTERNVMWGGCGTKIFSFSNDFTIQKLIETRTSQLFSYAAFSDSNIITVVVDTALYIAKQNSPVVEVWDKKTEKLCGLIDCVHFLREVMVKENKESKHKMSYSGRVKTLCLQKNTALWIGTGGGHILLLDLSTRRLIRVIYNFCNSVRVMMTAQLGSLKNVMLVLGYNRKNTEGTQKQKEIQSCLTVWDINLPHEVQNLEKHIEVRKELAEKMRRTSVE
T1 sequence (Q5S007 whole entry): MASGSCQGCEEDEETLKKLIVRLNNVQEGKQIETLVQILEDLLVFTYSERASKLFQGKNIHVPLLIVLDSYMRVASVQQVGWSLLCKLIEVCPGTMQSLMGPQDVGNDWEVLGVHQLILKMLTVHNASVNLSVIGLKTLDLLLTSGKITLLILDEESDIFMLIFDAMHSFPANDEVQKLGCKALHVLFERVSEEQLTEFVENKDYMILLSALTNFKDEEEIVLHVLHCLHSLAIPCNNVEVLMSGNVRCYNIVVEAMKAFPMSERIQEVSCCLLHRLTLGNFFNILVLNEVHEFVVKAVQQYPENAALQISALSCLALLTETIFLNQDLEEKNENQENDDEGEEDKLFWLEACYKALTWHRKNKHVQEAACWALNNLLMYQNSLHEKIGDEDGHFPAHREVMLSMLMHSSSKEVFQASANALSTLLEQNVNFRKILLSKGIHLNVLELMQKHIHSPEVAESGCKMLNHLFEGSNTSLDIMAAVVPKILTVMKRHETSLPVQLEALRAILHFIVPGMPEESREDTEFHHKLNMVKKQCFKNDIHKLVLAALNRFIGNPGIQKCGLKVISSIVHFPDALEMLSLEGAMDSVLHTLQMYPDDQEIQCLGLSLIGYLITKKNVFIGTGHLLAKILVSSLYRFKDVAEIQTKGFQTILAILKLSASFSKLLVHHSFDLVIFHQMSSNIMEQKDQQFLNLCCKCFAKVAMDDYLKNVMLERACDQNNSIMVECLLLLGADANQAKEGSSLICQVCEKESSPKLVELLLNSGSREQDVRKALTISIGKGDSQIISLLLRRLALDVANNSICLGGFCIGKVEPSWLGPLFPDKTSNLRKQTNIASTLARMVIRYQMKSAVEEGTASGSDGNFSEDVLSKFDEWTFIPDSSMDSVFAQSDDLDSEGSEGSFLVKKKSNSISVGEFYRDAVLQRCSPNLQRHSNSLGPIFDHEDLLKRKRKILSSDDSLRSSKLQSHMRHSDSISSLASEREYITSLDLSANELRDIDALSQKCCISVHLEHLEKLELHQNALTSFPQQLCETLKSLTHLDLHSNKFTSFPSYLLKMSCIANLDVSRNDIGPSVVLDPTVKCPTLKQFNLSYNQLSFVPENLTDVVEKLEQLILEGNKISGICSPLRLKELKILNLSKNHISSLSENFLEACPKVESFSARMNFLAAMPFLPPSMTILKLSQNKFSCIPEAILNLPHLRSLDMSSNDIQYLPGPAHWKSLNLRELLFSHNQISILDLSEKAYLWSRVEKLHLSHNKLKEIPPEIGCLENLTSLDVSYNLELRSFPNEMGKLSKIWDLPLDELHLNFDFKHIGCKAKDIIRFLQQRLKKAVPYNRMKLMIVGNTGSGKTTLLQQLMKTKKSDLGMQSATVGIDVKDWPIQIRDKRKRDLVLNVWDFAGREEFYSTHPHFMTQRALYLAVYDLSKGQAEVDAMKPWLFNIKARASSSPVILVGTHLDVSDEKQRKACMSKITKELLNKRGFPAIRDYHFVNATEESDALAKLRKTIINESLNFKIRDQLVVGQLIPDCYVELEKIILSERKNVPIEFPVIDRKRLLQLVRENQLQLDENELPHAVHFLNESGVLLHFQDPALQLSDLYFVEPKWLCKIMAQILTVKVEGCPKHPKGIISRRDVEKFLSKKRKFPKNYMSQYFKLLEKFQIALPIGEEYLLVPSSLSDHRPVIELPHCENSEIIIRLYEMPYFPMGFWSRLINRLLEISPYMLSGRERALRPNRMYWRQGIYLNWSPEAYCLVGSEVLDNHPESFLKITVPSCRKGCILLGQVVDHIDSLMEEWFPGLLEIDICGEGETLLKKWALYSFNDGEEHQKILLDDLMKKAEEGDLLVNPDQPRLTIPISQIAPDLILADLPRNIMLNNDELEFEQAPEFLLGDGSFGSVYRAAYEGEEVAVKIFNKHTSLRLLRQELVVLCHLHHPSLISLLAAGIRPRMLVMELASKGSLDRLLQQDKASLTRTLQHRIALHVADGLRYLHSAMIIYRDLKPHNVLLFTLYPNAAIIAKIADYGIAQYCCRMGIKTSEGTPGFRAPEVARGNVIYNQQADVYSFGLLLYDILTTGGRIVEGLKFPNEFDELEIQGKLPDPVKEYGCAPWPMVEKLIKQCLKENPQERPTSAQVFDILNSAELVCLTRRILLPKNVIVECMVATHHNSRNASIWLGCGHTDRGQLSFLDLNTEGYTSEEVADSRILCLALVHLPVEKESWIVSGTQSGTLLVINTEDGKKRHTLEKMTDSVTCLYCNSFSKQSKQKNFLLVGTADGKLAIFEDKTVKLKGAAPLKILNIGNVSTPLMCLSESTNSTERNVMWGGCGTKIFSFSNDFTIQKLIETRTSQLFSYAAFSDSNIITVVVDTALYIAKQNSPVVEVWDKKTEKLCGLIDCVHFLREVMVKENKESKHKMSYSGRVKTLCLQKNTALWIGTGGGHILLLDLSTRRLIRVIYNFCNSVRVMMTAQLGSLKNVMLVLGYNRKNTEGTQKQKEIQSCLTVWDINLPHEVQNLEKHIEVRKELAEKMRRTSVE
T2 sequence (Q5S007 whole entry): as above

Molecule	pIC50 in vitro (lrrktide) [1, 3]	IC50 [1, 3]	Cellular pS935 (% @ 5 μM) (LRRK2 phospho-Ser935; [4])	% LRRKtide phosphorylation relative to solvent [2]	Phosphorylation level relative to solvent (%) (cellular pS935 assay) (LRRK2 phospho-Ser935)	also measured
CCCNC(=O)Nc1ccc(Oc2ncnc3cc(OC)c(OC)cc23)cc1Cl	<5	> 10000 nM	62.48%	–	–	–
COc1cc2ncnc(Nc3cccc(Cl)c3)c2cc1OC [AG 1478]	5.43	3730 nM	75.11%	5.72%	75.11%	–
CC(C)[C@H](CO)Nc1nc(Nc2cc(N)cc(Cl)c2)c2ncn(C(C)C)c2n1 [Aminopurvalanol A]	–	2030 nM	121.05%	7.36%	121.05%	–
COc1cc2ncnc(Nc3ccc(NC(=O)c4ccccc4)cc3)c2cc1OC [Aurora kinase inhibitor II]	<5	> 10000 nM	69.85%	22.60%	69.85%	–
COc1cc(N2CCOCC2)ccc1Nc1ncc(F)c(Nc2ccccc2NS(C)(=O)=O)n1 [CZC25146]	8.75	1.78 nM	8.62%	–	–	pIC50 cellular (pS935) (LRRK2 phospho-Ser935; [5]): 7.36; IC50 (LRRK2 phospho-Ser935; [5]): 43.6 nM
CCn1cnc2c(Nc3cccc(Cl)c3)nc(N[C@H]3CCCC[C@H]3N)nc21 [Cdk1 inhibitor. CGP74514A]	5.46	3470 nM	83.35%	–	–	–
O=C1Nc2ccccc2/C1=C\c1c(Cl)[nH]c2ccccc12 [Cdk1 inhibitor]	<5	> 10000 nM	78.35%	29.84%	78.35%	–
Nc1nc(Nc2ccc(S(N)(=O)=O)cc2)nn1C(=S)Nc1c(F)cccc1F [Cdk1/2 inhibitor III]	9.04	0.91 nM	13.15%	0.73%	13.15%	pIC50 cellular (pS935) (LRRK2 phospho-Ser935; [5]): 8.93; IC50 (LRRK2 phospho-Ser935; [5]): 1.18 nM
COc1ccc(CNc2nc(N(CCO)CCO)nc3c2ncn3C(C)C)cc1 [Cdk2 inhibitor III]	<5	> 10000 nM	100.49%	60.51%	100.49%	–
CC(C)n1cnc2c(Nc3cccc(Cl)c3)nc(NCCO)nc21 [Compound 52]	5.41	3930 nM	76.44%	7.76%	76.44%	–
CCOc1cc2ncnc(Nc3cccc(Br)c3)c2cc1OCC [Compound 56]	5.52	3010 nM	86.56%	4.52%	86.56%	–
CN(C)c1ccc(/C=C2\C(=O)Nc3ccccc32)cc1 [DMBI]	5.83	1480 nM	54.34%	19.33%	54.34%	–
COc1cc2ncnc(Nc3ccc(OCc4ccccc4)cc3)c2cc1OC [EGFR/ErbB-2 inhibitor]	<5	> 10000 nM	67.43%	68.24%	67.43%	–
CC(=O)O/N=C1/C(=C2/C(=O)Nc3cc(Br)ccc32)Nc2ccccc21 [GSK-3 inhibitor X]	<5	> 10000 nM	106.06%	38.94%	106.06%	–
COc1cc(OC)c(C=C2C(O)=Nc3ccccc32)c(OC)c1 [IC261]	–	> 10000 nM	78.81%	89.62%	78.81%	–
O=C1Nc2ccccc2/C1=C1/Nc2ccccc2/C1=N\OCC(O)CO (stereo not drawn) [Indirubin derivative E804]	6.16	685 nM	101.13%	2.23%	101.13%	–

Molecule	pIC50 in vitro (lrrktide) [1, 3]	IC50 [1, 3]	Cellular pS935 (% @ 5 μM) (LRRK2 phospho-Ser935; [4])	% LRRKtide phosphorylation relative to solvent [2]	Phosphorylation level relative to solvent (%) (cellular pS935 assay) (LRRK2 phospho-Ser935)	also measured
O=C1Nc2ccccc2/C1=C1/Nc2ccccc2/C1=N\O [Indirubin-3'-monoxime]	5.75	1790 nM	85.53%	–	–	–
COc1cc2ncnc(Nc3ccc(O)c(Br)c3)c2cc1OC [JAK3 inhibitor II]	–	1200 nM	63.02%	1.86%	63.02%	–
COc1cc(C(=O)N2CCC(N3CCN(C)CC3)CC2)ccc1Nc1ncc2c(n1)N(C)c1ccccc1C(=O)N2C [LRRK2 IN1]	–	–	–	–	–	pIC50 in vitro (lrrktide) [1]: 8.45; IC50 [1]: 3.54 nM; Cellular pS935 (% @ 5 μM) (LRRK2 phospho-Ser935): 9.32%; pIC50 cellular (pS935) (LRRK2 phospho-Ser935): 6.55; IC50 (LRRK2 phospho-Ser935): 280 nM
Cc1[nH]c(/C=C2\C(=O)Nc3ccc(S(=O)(=O)N(C)c4cccc(Cl)c4)cc32)c(C)c1C(=O)N1CCN(C)CC1 [Met kinase inhibitor]	7.37	43 nM	52.43%	2.05%	52.43%	–
Nc1ccc2ncnc(NCCc3ccc(Oc4ccccc4)cc3)c2c1 [NF-KB activation inhibitor]	<5	> 10000 nM	65.67%	57.28%	65.67%	–
CCC(=O)Nc1ccc2ncnc(Nc3cccc(Br)c3)c2c1 [PD 174265]	5.05	8870 nM	67.74%	32.67%	67.74%	–
CSc1nc(-c2ccnc(NC(C)c3ccccc3)c2)c(-c2ccc(F)cc2)[nH]1 (stereo not drawn) [p38 MAP kinase inhibitor III]	–	–	–	112.29%	83.74%	–
O=c1c(-c2ccc(F)cc2)c(-c2ccncc2)[nH]n1-c1ccc(Cl)cc1 [p38 MAP kinase inhibitor]	–	–	–	132.68%	93.68%	–
GTP-14564	–	–	–	18.03%	71.63%	–
Indirubin-3′-monoxime	–	–	–	11.18%	85.53%	–
PDK1/Akt/Flt dual pathway inhibitor	–	–	–	5.76%	57.20%	–
PI 3-KbInhibitor II	–	–	–	93.55%	66.60%	–
PKR inhibitor. negative control	6.53	297 nM	72.69%	–	–	–
Syk inhibitor	6.20	632 nM	57.29%	–	–	–
cFMS receptor tyrosine kinase inhibitor	–	–	–	110.22%	60.62%	–
